Measurements taken from patent publication US20260200919A1, “SUBSTITUTED AMINOPYRIDINE COMPOUNDS AND METHODS OF TREATING DISEASE USING SAME” (Atavistik Bio, Inc., priority 2023, published 2026).

How the values were obtained:
[1] = target: T1, human recombinant kinase full-length AKT1 E17K (Homo sapiens, UniProt P31749, E17K); experiment: AKT1 E17K kinase assay (TR-FRET, Lance); type: biochemical; conditions: 0.6 nM AKT1 E17K, 50 nM Ulight-CREBtide, either 50 μM ATP or 2 mM ATP (not specified which), 60 min at RT
T1 construct: Purified human recombinant kinase full-length AKT1 E17K was expressed in insect cells; made in house; host or cells: insect cells
T1 sequence (P31749 whole entry E17K): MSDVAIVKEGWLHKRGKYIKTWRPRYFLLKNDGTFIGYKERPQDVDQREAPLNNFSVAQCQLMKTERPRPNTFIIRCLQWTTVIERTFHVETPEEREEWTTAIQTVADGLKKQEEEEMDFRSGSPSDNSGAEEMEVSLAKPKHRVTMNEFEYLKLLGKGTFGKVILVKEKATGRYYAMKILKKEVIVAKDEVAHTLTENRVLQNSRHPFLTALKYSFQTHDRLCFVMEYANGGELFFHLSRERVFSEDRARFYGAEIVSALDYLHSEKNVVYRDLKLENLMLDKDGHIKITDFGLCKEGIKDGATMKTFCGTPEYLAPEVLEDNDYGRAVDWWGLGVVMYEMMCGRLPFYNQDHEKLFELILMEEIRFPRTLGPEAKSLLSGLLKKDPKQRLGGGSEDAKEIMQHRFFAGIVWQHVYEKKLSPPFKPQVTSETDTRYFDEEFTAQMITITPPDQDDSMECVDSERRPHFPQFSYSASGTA
Procedure: AKT1 E17K kinase assay: Inhibitory effects of compounds on AKT1 E17K were undertaken in a 10-pt dose response kinase activity assay measuring phospho-peptide product formation based on TR-FRET signal as described in the following paragraph.
(§1) Purified human recombinant kinase full-length AKT1 E17K was expressed in insect cells and activated in vitro by PDPK1. Ulight™-CREBtide (PerkinElmer, catalog number TRF0107) was used as the peptide substrate. The reaction buffer consisted of 50 mM HEPES pH 7.5, 10 mM MgCl2, 0.01% Triton X-100, 0.01% BSA, 2 mM DTT, 0.6 nM AKT1 E17K, 50 nM. Ulight™ CREBtide and either 50 μM ATP or 2 mM ATP. The compound solution was prepared as 10 mM DMSO stock. […] Final DMSO concentration in the assay was 1%. […] The reaction was stopped after 60 min of incubation at RT by the addition of 10 μL of Detection Mix (PerkinElmer, #CR97-100) consisting of Europium-anti-phospho-CREB (Ser133) (Perkin Elmer, catalog numberTRF0200). Incubation with the detection mix for a further 60 min allowed binding of antibody to the phospho-Ulight™ CREBtide. The fluorescence emissions at 620 nm and 665 nm after excitation at […] was measured using Envision reader. The ratio of the emissions at 665 nm and at 620 nm provided the measure for the amount of phosphorylated CREBtide product of AKT1 E17K kinase activity.

[2] = target: T2, human recombinant kinase full-length wildtype AKT1 (Homo sapiens, UniProt P31749); experiment: AKT1 kinase assay (wildtype, TR-FRET, Lance); type: biochemical; conditions: 0.6 nM wildtype AKT1, 50 nM Ulight-CREBtide, either 50 μM ATP or 2 mM ATP (not specified which), 60 min at RT
T2 construct: Purified human recombinant kinase full-length wildtype AKT1 was expressed in insect cells; made in house; host or cells: insect cells
T2 sequence (P31749 whole entry): as the sequence (P31749 whole entry E17K) above, with K17E counted along it
Procedure: AKT1 kinase assay: Inhibitory effects of compounds on wildtype AKT1 were undertaken in a 10-pt dose response kinase activity assay measuring phospho-peptide product formation based on TR-FRET signal as described in the following paragraph.
as §1, with “full-length wildtype” for “full-length”, “AKT1” for “AKT1 E17K”, “Ulight™—CREBtide” for “Ulight™-CREBtide”, “AKT1,” for “AKT1 E17K,”, “nM Ulight™-CREBtide” for “nM. Ulight™ CREBtide”

Row | SMILES | IC50 [1] [nM] | IC50 [2] [nM]
1 | C[C@H](c1ccc(C(=O)O)cc1)N1CC(c2ccc(-n3c(-c4cccnc4N)nc4ccc(-c5ccccc5)nc43)cc2)C1 (single isomer, unassigned) [Compound 125] | 50 to 200 | < 500
2 | C[C@@H](c1ccc(C(=O)O)cc1)N1CC(c2ccc(-n3c(-c4cccnc4N)nc4ccc(-c5ccccc5)nc43)cc2)C1 (single isomer, unassigned) [Compound 126] | > 500 | < 500
3 | COC(=O)c1ccc([C@@H](C)N2CC(c3ccc(-n4c(-c5cccnc5N)nc5ccc(-c6ccccc6)nc54)cc3)C2)cc1 (single isomer, unassigned) [Compound 157] | > 500 | < 500
4 | COC(=O)c1ccc([C@H](C)N2CC(c3ccc(-n4c(-c5cccnc5N)nc5ccc(-c6ccccc6)nc54)cc3)C2)cc1 (single isomer, unassigned) [Compound 158] | > 500 | < 500
5 | Nc1ncccc1-c1nc2ccc(-c3ccccc3)nc2n1-c1ccc(CNC(=O)c2cccc(S(=O)(=O)O)c2F)cc1 [Compound 9, 3-((4-(2-(2-aminopyridin-3-yl)-5-phenyl-3H-imidazo[4,5-b]pyridin-3-yl)benzyl)carbamoyl)-2-fluorobenzenesulfonic acid] | 200 to 500 | < 500
6 | Nc1ncccc1-c1nc2ccc(-c3ccccc3)nc2n1-c1ccc(CNC(=O)c2cc(F)cc(C(=O)O)c2)cc1 [Compound 21, 3-((4-(2-(2-aminopyridin-3-yl)-5-phenyl-3H-imidazo[4,5-b]pyridin-3-yl)benzyl)carbamoyl)-5-fluorobenzoic acid] | < 50 | < 500
7 | Nc1ncccc1-c1nc2ccc(-c3ccccc3)nc2n1-c1ccc(CNC(=O)c2cc(C(=O)O)ccc2F)cc1 [Compound 23, 3-((4-(2-(2-aminopyridin-3-yl)-5-phenyl-3H-imidazo[4,5-b]pyridin-3-yl)benzyl)carbamoyl)-4-fluorobenzoic acid] | < 50 | < 500
8 | Nc1ncccc1-c1nc2ccc(-c3ccccc3)nc2n1-c1ccc(CNC(=O)c2ccc(CC(=O)O)cc2)cc1 [Compound 30, 2-(4-((4-(2-(2-aminopyridin-3-yl)-5-phenyl-3H-imidazo[4,5-b]pyridin-3-yl)benzyl)carbamoyl)phenyl)acetic acid] | 50 to 200 | < 500
9 | Nc1ncccc1-c1nc2ccc(-c3ccccc3)nc2n1-c1ccc(CNC(=O)c2cccc(CC(=O)O)c2)cc1 [Compound 32, 2-(3-((4-(2-(2-aminopyridin-3-yl)-5-phenyl-3H-imidazo[4,5-b]pyridin-3-yl)benzyl)carbamoyl)phenyl)acetic acid] | 50 to 200 | < 500
10 | COC(=O)Cc1cccc(C(=O)NCc2ccc(-n3c(-c4cccnc4N)nc4ccc(-c5ccccc5)nc43)cc2)c1F [Compound 33, methyl 2-(3-((4-(2-(2-aminopyridin-3-yl)-5-phenyl-3H-imidazo[4,5-b]pyridin-3-yl)benzyl)carbamoyl)-2-fluorophenyl)acetate] | > 500 | < 500
11 | Nc1ncccc1-c1nc2ccc(-c3ccccc3)nc2n1-c1ccc(CNC(=O)c2cccc(CC(=O)O)c2F)cc1 [Compound 34, 2-(3-((4-(2-(2-aminopyridin-3-yl)-5-phenyl-3H-imidazo[4,5-b]pyridin-3-yl)benzyl)carbamoyl)-2-fluorophenyl)acetic acid] | 200 to 500 | < 500
12 | CC(C(=O)O)c1ccc(C(=O)NCc2ccc(-n3c(-c4cccnc4N)nc4ccc(-c5ccccc5)nc43)cc2)cc1 (stereo not drawn) [Compound 35, 2-(4-((4-(2-(2-aminopyridin-3-yl)-5-phenyl-3H-imidazo[4,5-b]pyridin-3-yl)benzyl)carbamoyl)phenyl) propanoic acid] | < 50 | < 500
13 | CC(C(=O)O)c1cccc(C(=O)NCc2ccc(-n3c(-c4cccnc4N)nc4ccc(-c5ccccc5)nc43)cc2)c1F (stereo not drawn) [Compound 37, 2-(3-((4-(2-(2-aminopyridin-3-yl)-5-phenyl-3H-imidazo[4,5-b]pyridin-3-yl)benzyl)carbamoyl)-2-fluorophenyl) propanoic acid] | 200 to 500 | < 500
14 | CC(C(=O)O)c1cccc(C(=O)NCc2ccc(-n3c(-c4cccnc4N)nc4ccc(-c5ccccc5)nc43)cc2)n1 (stereo not drawn) [Compound 38, 2-(6-((4-(2-(2-aminopyridin-3-yl)-5-phenyl-3H-imidazo[4,5-b]pyridin-3-yl)benzyl)carbamoyl)pyridin-2-yl) propanoic acid] | > 500 | > 500
15 | Nc1ncccc1-c1nc2ccc(-c3ccccc3)nc2n1-c1ccc(CNC(=O)c2ccc(CCC(=O)O)cc2)cc1 [Compound 40, 3-(4-((4-(2-(2-aminopyridin-3-yl)-5-phenyl-3H-imidazo[4,5-b]pyridin-3-yl)benzyl)carbamoyl)phenyl) propanoic acid] | < 50 | < 500
16 | Nc1ncccc1-c1nc2ccc(-c3ccccc3)nc2n1-c1ccc(CNC(=O)c2cccc(CCC(=O)O)c2)cc1 [Compound 42, 3-(3-((4-(2-(2-aminopyridin-3-yl)-5-phenyl-3H-imidazo[4,5-b]pyridin-3-yl)benzyl)carbamoyl)phenyl) propanoic acid] | 50 to 200 | < 500
17 | NC(=O)Cc1cccc(C(=O)NCc2ccc(-n3c(-c4cccnc4N)nc4ccc(-c5ccccc5)nc43)cc2)c1 [Compound 43, 3-(2-amino-2-oxoethyl)-N-(4-(2-(2-aminopyridin-3-yl)-5-phenyl-3H-imidazo[4,5-b]pyridin-3-yl)benzyl)benzamide] | > 500 | < 500
18 | CCNC(=O)Cc1cccc(C(=O)NCc2ccc(-n3c(-c4cccnc4N)nc4ccc(-c5ccccc5)nc43)cc2)c1 [Compound 44, N-(4-(2-(2-aminopyridin-3-yl)-5-phenyl-3H-imidazo[4,5-b]pyridin-3-yl)benzyl)-3-(2-(ethylamino)-2-oxoethyl)benzamide] | > 500 | < 500
19 | Nc1ncccc1-c1nc2ccc(-c3ccccc3)nc2n1-c1ccc(CNC(=O)c2cccc(CC(=O)O)c2)nc1 [Compound 48, 2-(3-(((5-(2-(2-aminopyridin-3-yl)-5-phenyl-3H-imidazo[4,5-b]pyridin-3-yl)pyridin-2-yl)methyl)carbamoyl)phenyl)acetic acid] | > 500 | > 500
20 | Nc1ncccc1-c1nc2ccc(-c3ccccc3)nc2n1-c1ccc(CNC(=O)c2cccc(CC(=O)O)c2)cn1 [Compound 49, 2-(3-(((6-(2-(2-aminopyridin-3-yl)-5-phenyl-3H-imidazo[4,5-b]pyridin-3-yl)pyridin-3-yl)methyl)carbamoyl)phenyl)acetic acid] | > 500 | > 500
21 | Nc1ncccc1-c1nc2ccc(-c3ccccc3)nc2n1-c1ccc(CNC(=O)c2cccc(CC(=O)O)c2)c(F)c1 [Compound 50, 2-(3-((4-(2-(2-aminopyridin-3-yl)-5-phenyl-3H-imidazo[4,5-b]pyridin-3-yl)-2-fluorobenzyl)carbamoyl)phenyl)acetic acid] | > 500 | > 500
22 | Nc1ncccc1-c1nc2ccc(-c3ccccc3)cc2n1-c1ccc(CNC(=O)c2cccc(CC(=O)O)c2)cc1 [Compound 51, 2-(3-((4-(2-(2-aminopyridin-3-yl)-6-phenyl-1H-benzo[d]imidazol-1-yl)benzyl)carbamoyl)phenyl)acetic acid] | 50 to 200 | < 500
23 | Nc1ncccc1-c1nc2ccc(-c3ccccc3)nc2n1-c1ccc(C(=O)NCc2cccc(CC(=O)O)c2)cc1 [Compound 52, 2-(3-((4-(2-(2-aminopyridin-3-yl)-5-phenyl-3H-imidazo[4,5-b]pyridin-3-yl)benzamido)methyl)phenyl)acetic acid] | > 500 | > 500
24 | Nc1ncccc1-c1nc2ccc(-c3ccccc3)nc2n1-c1ccc(NC(=O)c2ccc(C(=O)O)cc2)cc1 [Compound 53] | < 50 | < 500
